Test results taken from patent publication US10214533B2, “N-acyl-(3-substituted)-5,6,7,8-tetrahydro-[1,2,4]triazolo[4,3-a]pyrazines as selective NK-3 receptor antagonists, pharmaceutical composition, methods for use in NK-3 receptor-mediated disorders” (OGEDA SA, priority 2013, dated 2019).

What follows are molecules tested on plasma protein (assay: Determination of plasma protein binding (rapid equilibrium dialysis)). Conditions: 4 hours at 37° C.
Type: in vitro ADME
Protocol: The determination of plasma protein binding (PPB) of a compound is enabled by equilibrium dialysis, an accepted and standard method for reliable estimation of the non-bound drug fraction in plasma. RED (Rapid Equilibrium Dialysis) device insert is made of two side-by-side chambers separated by an O-ring-sealed vertical cylinder of dialysis membrane (MWCO ˜8,000). […] After 4 hours incubation at 37° C. under shaking, an aliquot is removed from each chamber and analyzed by a LC-MS/MS procedure enables the determination of both free and bound drug.
The “free fraction” may be calculated as 100%−% rPPB (i.e. the complementary percentage of that disclosed in Table 4, corresponding to the drug concentration that is unbound and therefore available to engage biological target and elicit pharmacological activity).

SMILES	Exposure (% rPPB), bound drug fraction to the plasma protein
Cc1nsc(-c2nnc3n2CCN(C(=O)c2ccc(Cl)c(F)c2)C3)n1 [Compound 3, (4-chloro-3-fluorophenyl)(3-(3-methyl-1,2,4-thiadiazol-5-yl)-5,6-dihydro-[1,2,4]triazolo[4,3-a]pyrazin-7(8H)-yl)methanone]	54%
Cc1nsc(-c2nnc3n2CCN(C(=O)c2ccc(Cl)cc2)C3)n1 [Compound 2, (4-chlorophenyl)(3-(3-methyl-1,2,4-thiadiazol-5-yl)-5,6-dihydro-[1,2,4]triazolo[4,3-a]pyrazin-7(8H)-yl)methanone]	49%
Cc1nsc(-c2nnc3n2CCN(C(=O)c2ccc(F)c(F)c2F)C3)n1 [Compound 7, (3-(3-methyl-1,2,4-thiadiazol-5-yl)-5,6-dihydro-[1,2,4]triazolo[4,3-a]pyrazin-7(8H)-yl)(2,3,4-trifluorophenyl)methanone]	25%

Other lines, results leading:

Exposure (% rPPB), bound drug fraction to the plasma protein	SMILES
52%	Cc1nsc(-c2nnc3n2CCN(C(=O)c2ccc(F)c(Cl)c2)C3)n1 [Compound 4, (3-chloro-4-fluorophenyl)(3-(3-methyl-1,2,4-thiadiazol-5-yl)-5,6-dihydro-[1,2,4]triazolo[4,3-a]pyrazin-7(8H)-yl)methanone]
27%	Cc1nsc(-c2nnc3n2CCN(C(=O)c2cc(F)c(F)c(F)c2)C3)n1 [Compound 6, (3-(3-methyl-1,2,4-thiadiazol-5-yl)-5,6-dihydro-[1,2,4]triazolo[4,3-a]pyrazin-7(8H)-yl)(3,4,5-trifluorophenyl)methanone]
28%	Cc1nsc(-c2nnc3n2CCN(C(=O)c2ccc(F)c(F)c2)C3)n1 [Compound 5, (3,4-difluorophenyl)(3-(3-methyl-1,2,4-thiadiazol-5-yl)-5,6-dihydro-[1,2,4]triazolo[4,3-a]pyrazin-7(8H)-yl)methanone]

Each molecule was assayed on circulating LH levels (assay: Castrated male rat model, circulating luteinizing hormone (LH) levels, oral dosing). Conditions: castrated male SD rat, single oral dose less than or equal to 30 mg/kg, p<0.05.
Type: in vivo
Protocol: The effect of compounds of the invention to inhibit luteinizing hormone (LH) secretion is determined by the following biological studies. In humans and rodents, castration is well-precedented to permit heightened, persistent GnRH signaling and consequent elevation of circulating LH. Thus, a castrated rat model is used to provide a broad index for measurement of LH inhibition as a marker of test compound inhibition of the GnRH signaling pathway. Castrated adult male Sprague-Dawley (SD) rats (150-175 g) were purchased from Janvier (St Berthevin, France). All animals were housed 2 per cage in a temperature-controlled room (22±2° C.) and 50±5% relative humidity with a 12 hour/12 hour light/dark cycles (lights off at 6 h00 pm). The animals were allowed 3 weeks of postoperative recovery prior to study. Animals were handled on a daily basis. Standard diet and tap water were provided ad libitum. Animal cage litters were changed once a week. On the study day, animals were acclimated to the procedure room for a period of one hour prior to the initiation of the experiment. Compounds of the invention were formulated in 0.5% methyl cellulose. After basal sampling (TO) a single dose of compounds of the invention or vehicle was administrated orally to rats. […] Serum LH levels were determined using radioimmunoassay kit from RIAZEN—Rat LH, Zentech (Liège, Belgium). […]

SMILES	Suppression of circulating LH levels
Cc1nsc(-c2nnc3n2CCN(C(=O)c2ccc(F)cc2)C3)n1 [Compound 1, (4-fluorophenyl)(3-(3-methyl-1,2,4-thiadiazol-5-yl)-5,6-dihydro-[1,2,4]triazolo[4,3-a]pyrazin-7(8H)-yl)methanone]	significantly suppressed circulating LH levels
